Source: BindingDB's records for doi:10.1021/jm0003945 (Vrije Universiteit, 2001)

Molecular target: T1, Adenosine receptor A2b (Homo sapiens, UniProt P29275)
T1 sequence (P29275 whole entry): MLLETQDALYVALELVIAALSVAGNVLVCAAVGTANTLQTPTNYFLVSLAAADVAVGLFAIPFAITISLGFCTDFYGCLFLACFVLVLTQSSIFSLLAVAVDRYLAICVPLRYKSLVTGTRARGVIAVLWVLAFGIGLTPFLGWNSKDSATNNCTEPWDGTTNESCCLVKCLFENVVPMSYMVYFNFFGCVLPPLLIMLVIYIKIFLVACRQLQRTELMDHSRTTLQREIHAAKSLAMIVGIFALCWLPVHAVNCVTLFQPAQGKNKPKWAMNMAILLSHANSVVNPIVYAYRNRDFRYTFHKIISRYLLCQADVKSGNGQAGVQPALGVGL
Assay: Percent displacement of [3H]DPCPX binding in human adenosine A2B receptor expressed in COS-7 cells

Ki: 10 µM
SMILES: COc1ccccc1NC(=O)Nc1nc(-c2cccnc2)nc2ccccc12 [VUF-5574]
